Results on one molecule are retold here after article doi:10.1101/2024.03.04.583282v1 (biorxiv, 2024).

One assay has as its target NATA2Δ (Arabidopsis thaliana, UniProt Q9ZV06). The experiment in a line: isothermal titration calorimetry. In kind it is binding. In general terms: ITC needs no label: the signal is the heat of the interaction.
The target of the next assay is NATA1Δ (Arabidopsis thaliana, UniProt Q9ZV05). Description: isothermal titration calorimetry. In kind it is binding.

Broadly, the pKd is −log10 of the Kd, conventionally taken in molar units.

pKd: −log10 of the molar value.

Sequence of NATA2Δ (Q9ZV06 30-236, stated change not applied): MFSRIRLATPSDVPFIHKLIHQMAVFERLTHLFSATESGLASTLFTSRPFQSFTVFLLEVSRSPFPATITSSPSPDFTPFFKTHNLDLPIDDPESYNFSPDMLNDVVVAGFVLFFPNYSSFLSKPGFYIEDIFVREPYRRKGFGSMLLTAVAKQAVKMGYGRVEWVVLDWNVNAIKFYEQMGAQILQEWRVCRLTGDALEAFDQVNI
Sequence of NATA1Δ (Q9ZV05 19-228, stated change not applied): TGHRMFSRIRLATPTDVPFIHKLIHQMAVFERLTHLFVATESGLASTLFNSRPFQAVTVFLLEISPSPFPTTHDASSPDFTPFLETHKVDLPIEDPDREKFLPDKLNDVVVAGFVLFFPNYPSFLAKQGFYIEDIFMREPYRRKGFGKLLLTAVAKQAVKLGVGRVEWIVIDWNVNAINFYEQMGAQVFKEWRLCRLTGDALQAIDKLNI

For `CC(=O)SCCNC(=O)CCNC(=O)[C@H](O)C(C)(C)COP(=O)(O)OP(=O)(O)OC[C@H]1O[C@@H](n2cnc3c(N)ncnc32)[C@H](O)[C@@H]1OP(=O)(O)O` [acCoA], the pKd at NATA2Δ and at NATA1Δ was ~5.00 in each case.
